Structures can show the parent of a compound that is named as a salt.
Legend:
Conditions in all cases: 72 h
Caco-2 [1] = assay: cell viability relative to DMSO; higher = less toxic
Calu-3 [2] = assay: as above
HepG2 [3] = assay: as above
U2OS [4] = assay: as above
Vero E6 [5] = assay: as above
Caco-2 [6] = assay: relative viability EC50 (midpoint between 100% and the lowest measured viability); higher = less toxic
Calu-3 [7] = assay: as above
HepG2 [8] = assay: as above
U2OS [9] = assay: as above
Vero E6 [10] = assay: as above
Caco-2 [11] = assay: drug sensitivity score (DSS) for viability; higher = more toxic; extreme values may be limits of the assay
Calu-3 [12] = assay: as above
HepG2 [13] = assay: as above
U2OS [14] = assay: as above
Vero E6 [15] = assay: as above

| SMILES | cell viability (Caco-2 [1]; 1 nM) | cell viability (Caco-2 [1]; 10 nM) | cell viability (Caco-2 [1]; 100 nM) | cell viability (Caco-2 [1]; 1000 nM) | cell viability (Caco-2 [1]; 10000 nM) | cell viability (Calu-3 [2]; 1 nM) | cell viability (Calu-3 [2]; 10 nM) | cell viability (Calu-3 [2]; 100 nM) | cell viability (Calu-3 [2]; 1000 nM) | cell viability (Calu-3 [2]; 10000 nM) | cell viability (HepG2 [3]; 1 nM) | cell viability (HepG2 [3]; 10 nM) | cell viability (HepG2 [3]; 100 nM) | cell viability (HepG2 [3]; 1000 nM) | cell viability (HepG2 [3]; 10000 nM) | cell viability (U2OS [4]; 1 nM) | cell viability (U2OS [4]; 10 nM) | cell viability (U2OS [4]; 100 nM) | cell viability (U2OS [4]; 1000 nM) | cell viability (U2OS [4]; 10000 nM) | cell viability (Vero E6 [5]; 1 nM) | cell viability (Vero E6 [5]; 10 nM) | cell viability (Vero E6 [5]; 100 nM) | cell viability (Vero E6 [5]; 1000 nM) | cell viability (Vero E6 [5]; 10000 nM) | relative viability EC50 (Caco-2 [6]) | relative viability EC50 (Calu-3 [7]) | relative viability EC50 (HepG2 [8]) | relative viability EC50 (U2OS [9]) | relative viability EC50 (Vero E6 [10]) | drug sensitivity score (Caco-2 [11]) | drug sensitivity score (Calu-3 [12]) | drug sensitivity score (HepG2 [13]) | drug sensitivity score (U2OS [14]) | drug sensitivity score (Vero E6 [15]) |
| --- | --- | --- | --- | --- | --- | --- | --- | --- | --- | --- | --- | --- | --- | --- | --- | --- | --- | --- | --- | --- | --- | --- | --- | --- | --- | --- | --- | --- | --- | --- | --- | --- | --- | --- | --- |
| COCC1(CO)C(=O)C2CCN1CC2 (stereo not given) [APR-246] | 99.5% | 94.7% | 95.1% | 94.2% | 94.6% | 96.7% | 87.5% | 111% | 90.4% | 94.5% | 93% | 99.7% | 96.6% | 112% | 91.8% | 100% | 94.9% | 99.8% | 96.3% | 99.5% | 97.1% | 99.3% | 96.6% | 97.8% | 93.1% | > 10 µM | > 10 µM | > 10 µM | > 10 µM | > 10 µM | 0 | 0 | 0 | 0 | 0 |
| C=CC(=O)Nc1cccc(Nc2nc(Nc3ccc(OCCOC)cc3)ncc2F)c1 [AVL-292] | 85.2% | 90.8% | 102% | 78.3% | 21.5% | 100% | 106% | 92.2% | 97.2% | 27.2% | 101% | 95.7% | 101% | 80.5% | 29.7% | 100% | 100% | 94.9% | 91.5% | 9% | 96.9% | 94.5% | 94.9% | 82.5% | 11.9% | 1.47 µM | 2.87 µM | 1.47 µM | 2.39 µM | 1.74 µM | 7.6 | 4.4 | 6.8 | 6.4 | 7.7 |
| N#Cc1ccc2[nH]c(O)c(-c3ccc(CN4CCOCC4)cn3)c2c1 [AZD1080] | 96.3% | 100% | 106% | 113% | 84.6% | 105% | 107% | 100% | 112% | 91.2% | 107% | 99.3% | 102% | 112% | 82.7% | 95.3% | 105% | 95.8% | 105% | 99.5% | 99.1% | 97.6% | 98.2% | 108% | 82% | > 10 µM | > 10 µM | > 10 µM | > 10 µM | > 10 µM | 0.1 | 0 | 0.2 | 0 | 0.2 |
| CC[C@@H]1C(=O)N(C)c2cnc(Nc3ccc(C(=O)NC4CCN(C)CC4)cc3OC)nc2N1C1CCCC1 [BI-2536] | 94.4% | 96.5% | 56.8% | 61.3% | 31.5% | 93.3% | 97.3% | 85.4% | 77.7% | 3.8% | 106% | 92.2% | 27.4% | 24.2% | 7.7% | 97% | 103% | 53.1% | 28% | 8.1% | 96.2% | 98.7% | 103% | 37.4% | 1.1% | 0.148 µM | 1.66 µM | 0.0445 µM | 0.132 µM | 0.805 µM | 13.6 | 8.6 | 26.1 | 19.8 | 12.8 |
| CC1(C)CCC(C)(C)c2cc(C3(c4ccc(C(=O)O)cc4)OCCO3)ccc21 [BMS-649] | 92.7% | 95.5% | 93.1% | 100% | 101% | 96.7% | 99% | 100% | 91.5% | 109% | 109% | 87.6% | 113% | 108% | 103% | 95.2% | 98.4% | 101% | 103% | 99% | 96% | 97.6% | 100% | 92.4% | 97.8% | > 10 µM | > 10 µM | > 10 µM | > 10 µM | > 10 µM | 0 | 0 | 0 | 0 | 0 |
| C=CCN1C[C@H](C)N([C@H](c2ccc(C(=O)N(CC)CC)cc2)c2cccc(O)c2)C[C@H]1C [BW-373U86] | 101% | 102% | 96.1% | 96.7% | 95.2% | 92.9% | 103% | 107% | 102% | 101% | 95.5% | 93.7% | 101% | 86.9% | 96.3% | 100% | 102% | 96% | 104% | 97.8% | 105% | 100% | 105% | 94.9% | 104% | > 10 µM | > 10 µM | > 10 µM | > 10 µM | > 10 µM | 0 | 0 | 0 | 0 | 0 |
| CCC[C@@H]1C[C@@H](C(=O)N[C@@H]([C@H]2O[C@H](SC)[C@H](O)[C@@H](O)[C@H]2O)[C@H](C)Cl)N(C)C1 [CLINDAMYCIN HYDROCHLORIDE] | 95.6% | 95.7% | 95.3% | 108% | 108% | 100% | 96.7% | 98.9% | 102% | 102% | 103% | 93% | 104% | 100% | 97.6% | 97.6% | 102% | 99.2% | 105% | 103% | 95.3% | 89.8% | 93.8% | 91.2% | 104% | > 10 µM | > 10 µM | > 10 µM | > 10 µM | > 10 µM | 0 | 0 | 0 | 0 | 0 |

From the supplement of paper PMC13380429
